# Laboratory results reported in EPA's ToxValDB 9.5.
# Several values for one entry are separate records, joined by “and”; a condition that tells them apart may be missing. Equal values may be shown once.
# Key:
# Mus musculus [1] = conditions: for LD50 / LC50: acute
# Rattus norvegicus [2] = conditions: for LD50 / LC50: acute
# Rattus norvegicus [3] = conditions: oral, Sprague-Dawley; for NOAEL: M/F
# Mus musculus [4] = conditions: oral, M
# Rattus norvegicus [5] = conditions: oral
# Rattus norvegicus [6] = conditions: Hershberger, oral, gavage
# Rattus norvegicus [7] = conditions: oral; remark: listed apart in the source
# Oryctolagus sp. = conditions: acute; dermal
# [8] = reproduction developmental, oral, diet, CD1, generation: F0
# [9] = reproduction developmental, oral, diet, CD1, generation: F1
# [10] = reproduction developmental, oral, diet, CD1, generation: F2
# [11] = subchronic, duration: 13 weeks, oral, diet, M, B6C3F1
# [12] = subchronic, duration: 13 weeks, oral, diet, Fischer 344
# [13] = short-term, duration: 28 days, gavage, M, Sprague-Dawley, Clinical Observation: Spontaneous locomotion decrease, Respiratory rate decrease, Prone position Eyelid closure Staggering gait Incomplete …
# [14] = developmental, duration: 14 days, gavage, NMRI, developmental
# [15] = duration: 5 days, Sprague-Dawley, active + Antiandrogenic + anti-androgenic + PPS delayed by 5 days / single dose tested (liver wt?)
# [16] = chronic, duration: 2 years, diet, M/F, increased absolute and relative liver weight
# [17] = subchronic, duration: 13 weeks, diet, M/F, neurological dysfunction
# [18] = reproduction developmental, drinking water, F, reproductive effects
# [19] = duration: 10 days, Wistar, active + Negative + Antiandrogenic + anti-androgenic
# [20] = reproduction developmental, M/F, reduced fertility index and reduced body weight of dams
smiles,measurement,setting,value
CCCCCCCCOC(=O)c1ccccc1C(=O)OCCCCCCCC [Di-n-octyl phthalate],LD50,Mus musculus [1]; oral,13000 mg/kg
same,NOAEL,"Mus musculus [1]; reproduction developmental, duration: 8 days, oral, gavage, F, CD1",9780 mg/kg-day
same,NOAEL (% diet),Mus musculus [1]; [8],5
same,NOAEL (% diet),Mus musculus [1]; [9],5
same,NOAEL (% diet),Mus musculus [1]; [10],5
same,LD50,Rattus norvegicus [2]; oral,53700 mg/kg
same,NOAEL,"Rattus norvegicus [2]; reproduction developmental, duration: 13 weeks, oral, diet, Sprague-Dawley",38.8 mg/kg-day
same,LOAEL,"Rattus norvegicus [3]; short-term, duration: 14 days, gavage, M, hepatic",1000 mg/kg-day
same,NOAEL,"Rattus norvegicus [3]; subchronic, duration: 13 weeks, diet, hepatic",40.8 mg/kg-day
"CNNC [1,2-Dimethylhydrazine]",LOAEL,"Mus musculus [4]; chronic, duration: 5 months, diet, hepatic",0.75 mg/kg-day
OCC(CO)(CBr)CBr [Pentaerythritol dibromide],LOAEL,"Mus musculus [1]; chronic, duration: 104 weeks, oral, diet, B6C3F1",57.7 mg/kg-day
same,NOAEL (% diet),Mus musculus [1]; [8],0.1
same,NOAEL (% diet),Mus musculus [1]; [9],0.1
same,NOAEL (% diet),Mus musculus [1]; [10],0.1
same,LOAEL,"Mus musculus [1]; subchronic, duration: 13 weeks, oral, diet, F, B6C3F1",123 mg/kg-day
same,LOAEL,Mus musculus [1]; [11],246 mg/kg-day
same,NOAEL,Mus musculus [1]; [11],123 mg/kg-day
same,LD50,"Rattus norvegicus [2]; oral, gavage, Crl:CD1",1880 mg/kg
same,LD50,"Rattus norvegicus [2]; oral, gavage, Sprague-Dawley",> 2000 mg/kg
same,LOAEL,"Rattus norvegicus [2]; subchronic, duration: 3 months, oral, diet, Fischer 344",240 mg/kg-day
same,LOAEL,Rattus norvegicus [2]; [12],240 mg/kg-day
same,NOAEL,Rattus norvegicus [2]; [12],120 mg/kg-day
same,NOAEL,Rattus norvegicus [5]; [13],200 mg/kg-day
same,NOEL,Rattus norvegicus [5]; [13],< 200 mg/kg-day
same,NOEL,"Rattus norvegicus [5]; subchronic, duration: 13 weeks, diet, F, Fischer 344, Body Weight Changes: decrease + Urinalysis: Total protein increase, Urine volume increase, Specific gravity decrease + Blood Chemistry: TP …",100 mg/kg-day
same,NOEL,"Rattus norvegicus [5]; subchronic, duration: 13 weeks, diet, M/F, Fischer 344, Body Weight Changes: decrease + Urinalysis: Total protein increase, Urine volume increase, Specific gravity decrease + Blood Chemistry: TP …",< 120 mg/kg-day
"ClC(Cl)=C(c1ccc(Cl)cc1)c1ccc(Cl)cc1 [p,p'-DDE]",LOAEL,Mus musculus [4]; [14],0.5 mg/kg-day
same,LOEL,Rattus norvegicus [6]; [15],100 mg/kg-day
same,NOEL,Rattus norvegicus [6]; [15],10 mg/kg-day
same,LOEL,"Rattus norvegicus [6]; duration: 7 days, Fischer 344, active + Antiandrogenic + anti-androgenic + PPS delayed by 5 days / single dose tested (liver wt?)",100 mg/kg-day and 200 mg/kg-day
same,LOEL,"Rattus norvegicus [6]; duration: 7 days, Long-Evans, active + Antiandrogenic + anti-androgenic + PPS delayed by 5 days / single dose tested (liver wt?)",100 mg/kg-day
same,LOEL,"Rattus norvegicus [6]; duration: 7 days, Sprague-Dawley, active + Antiandrogenic + anti-androgenic + PPS delayed by 5 days / single dose tested (liver wt?)",100 mg/kg-day and 200 mg/kg-day
same,LOEL,"Rattus norvegicus [6]; duration: 10 days, Sprague-Dawley, active + Negative + Antiandrogenic + anti-androgenic + PPS delayed by 5 days / single dose tested (liver wt?)",100 mg/kg-day
same,NOEL,"Rattus norvegicus [6]; duration: 10 days, Wistar, active + Antiandrogenic + anti-androgenic + PPS delayed by 5 days / single dose tested (liver wt?)",16 mg/kg-day and 30 mg/kg-day
same,NOEL,"Rattus norvegicus [6]; duration: 10 days, wistar, active + Antiandrogenic + anti-androgenic + PPS delayed by 5 days / single dose tested (liver wt?)",10 mg/kg-day and 16 mg/kg-day and 30 mg/kg-day
CN(C)C(=O)Nc1cccc(C(F)(F)F)c1 [Fluometuron],NOAEL,"Rattus norvegicus [7]; chronic, duration: 103 weeks, diet, M/F, no effects",12.5 mg/kg-day
CC1=C(C)S(=O)(=O)CCS1(=O)=O [Dimethipin],LEL,Rattus norvegicus [7]; [16],10 mg/kg-day
same,NOEL,Rattus norvegicus [7]; [16],2 mg/kg-day
CC(C)C(C(=O)OC(C#N)c1cccc(Oc2ccccc2)c1)c1ccc(Cl)cc1 (stereo not drawn) [Fenvalerate],LEL,Rattus norvegicus [7]; [17],7.5 mg/kg-day
same,NOEL,Rattus norvegicus [7]; [17],2.5 mg/kg-day
Oc1ccccc1Cl [2-Chlorophenol],LOAEL,Rattus norvegicus [7]; [18],50 mg/kg-day
same,NOAEL,Rattus norvegicus [7]; [18],5 mg/kg-day
same,NOAEL,"Rattus norvegicus [3]; reproduction developmental, duration: 364 days, drinking water, reproductive",7.6 mg/kg-day
"Clc1ccc(C(c2ccc(Cl)cc2)C(Cl)Cl)cc1 [p,p'-DDD]",LOAEL,Mus musculus [4]; [14],0.5 mg/kg-day
same,LOEL,Rattus norvegicus [6]; [19],200 mg/kg-day
same,NOEL,Rattus norvegicus [6]; [19],40 mg/kg-day
COc1nc(NC(C)C)nc(NC(C)C)n1 [Prometon],NOAEL,"Rattus norvegicus [7]; subchronic, diet, M/F, no effects",15 mg/kg-day
CCBr [Bromoethane],LC50,"Mus musculus [1]; inhalation, B6C3F1",12100 mg/m3
same,LC50,"Mus musculus [1]; inhalation, CF1",72200 mg/m3
same,NOAEL,"Mus musculus [1]; short-term, duration: 14 days, inhalation, B6C3F1",2230 mg/m3
same,LC50,"Rattus norvegicus [2]; inhalation, Fischer 344",20900 mg/m3
same,LC50,"Rattus norvegicus [2]; inhalation, Sprague-Dawley",120000 mg/m3
same,NOAEL,"Rattus norvegicus [2]; chronic, duration: 14 weeks, inhalation, Fischer 344",1780 mg/m3
same,NOAEL,"Rattus norvegicus [2]; short-term, duration: 14 days, inhalation, Fischer 344",2230 mg/m3
O=c1nc([O-])n(Cl)c(=O)n1Cl.[Na+] [Sodium dichloroisocyanurate],LD50,Oryctolagus sp.,> 2000 mg/kg
"CCN(O)CC [N,N-Diethylhydroxylamine]",LD50,Mus musculus [1]; oral,2150 mg/kg
same,LC50,"Rattus norvegicus [2]; inhalation, Sprague-Dawley",11400 mg/m3
same,LD50,"Rattus norvegicus [2]; oral, gavage, WBS/W",2190 mg/kg
same,NOAEL,"Rattus norvegicus [2]; reproduction developmental, oral, gavage, F, Sprague-Dawley",250 mg/kg-day
same,NOAEL,"Rattus norvegicus [2]; short-term, duration: 5 days, inhalation, Sprague-Dawley",547 mg/m3
same,NOAEL,"Rattus norvegicus [2]; short-term, duration: 28 days, inhalation, Sprague-Dawley",547 mg/m3
Clc1cc(Cl)cc(C2(CC(Cl)(Cl)Cl)CO2)c1 (stereo not drawn) [Tridiphane],LEL,Rattus norvegicus [7]; [20],1.67 mg/kg-day
same,NOEL,Rattus norvegicus [7]; [20],0.33 mg/kg-day
